Results published in PMC3399817 (PLoS ONE, 2012).

Legend:
DCAMKL3 = biological target: T1, DCAMKL3 (Homo sapiens, UniProt Q9C098); experiment: KINOMEscan; type: binding; details: DCAMKL3, 1 uM
T1 construct: purchased Ambit KINOMEscan (DiscoverX)
Method in brief: (§1)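 Panel profiling at one dose (1 μM) identifies kinases prevented from binding substrate by the test molecule.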

FGFR4 = biological target: T2, FGFR4 (Homo sapiens, UniProt P22455); experiment: KINOMEscan; type: binding; details: FGFR4, 1 uM
T2 construct: purchased Ambit KINOMEscan (DiscoverX)
Method in brief: as §1

LZK = biological target: T3, LZK (Homo sapiens, UniProt O43283); experiment: KINOMEscan; type: binding; details: 1 uM
T3 construct: purchased Ambit KINOMEscan (DiscoverX)
T3 sequence (O43283 whole entry): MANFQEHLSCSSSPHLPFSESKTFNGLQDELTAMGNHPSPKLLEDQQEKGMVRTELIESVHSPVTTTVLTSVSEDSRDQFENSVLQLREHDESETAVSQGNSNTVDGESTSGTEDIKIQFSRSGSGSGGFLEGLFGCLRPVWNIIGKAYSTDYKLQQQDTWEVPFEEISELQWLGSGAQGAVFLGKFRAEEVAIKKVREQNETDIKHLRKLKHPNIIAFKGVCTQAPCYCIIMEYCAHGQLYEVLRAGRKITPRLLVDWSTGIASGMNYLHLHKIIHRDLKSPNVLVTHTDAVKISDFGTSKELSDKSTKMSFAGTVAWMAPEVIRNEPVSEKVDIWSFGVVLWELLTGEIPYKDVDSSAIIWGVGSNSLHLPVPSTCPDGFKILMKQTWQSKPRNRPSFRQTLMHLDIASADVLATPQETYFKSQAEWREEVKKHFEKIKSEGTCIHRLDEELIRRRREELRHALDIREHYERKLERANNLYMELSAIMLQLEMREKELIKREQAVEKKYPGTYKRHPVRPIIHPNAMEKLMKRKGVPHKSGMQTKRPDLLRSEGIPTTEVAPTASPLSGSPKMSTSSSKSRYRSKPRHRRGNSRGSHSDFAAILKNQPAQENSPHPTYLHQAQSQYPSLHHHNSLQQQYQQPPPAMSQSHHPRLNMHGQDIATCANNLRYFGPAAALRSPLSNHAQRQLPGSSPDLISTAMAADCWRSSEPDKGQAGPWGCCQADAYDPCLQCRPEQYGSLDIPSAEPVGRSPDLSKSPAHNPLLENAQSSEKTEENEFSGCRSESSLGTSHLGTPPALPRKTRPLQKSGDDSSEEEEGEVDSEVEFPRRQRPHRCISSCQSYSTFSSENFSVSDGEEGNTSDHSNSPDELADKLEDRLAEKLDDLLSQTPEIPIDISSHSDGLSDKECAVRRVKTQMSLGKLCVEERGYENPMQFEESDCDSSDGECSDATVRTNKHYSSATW
Method in brief: as §1

PCTK3 = biological target: T4, PCTK3 (Homo sapiens, UniProt Q07002); experiment: KINOMEscan; type: binding; details: PCTK3, 1 uM
T4 construct: purchased Ambit KINOMEscan (DiscoverX)
T4 sequence (Q07002 whole entry): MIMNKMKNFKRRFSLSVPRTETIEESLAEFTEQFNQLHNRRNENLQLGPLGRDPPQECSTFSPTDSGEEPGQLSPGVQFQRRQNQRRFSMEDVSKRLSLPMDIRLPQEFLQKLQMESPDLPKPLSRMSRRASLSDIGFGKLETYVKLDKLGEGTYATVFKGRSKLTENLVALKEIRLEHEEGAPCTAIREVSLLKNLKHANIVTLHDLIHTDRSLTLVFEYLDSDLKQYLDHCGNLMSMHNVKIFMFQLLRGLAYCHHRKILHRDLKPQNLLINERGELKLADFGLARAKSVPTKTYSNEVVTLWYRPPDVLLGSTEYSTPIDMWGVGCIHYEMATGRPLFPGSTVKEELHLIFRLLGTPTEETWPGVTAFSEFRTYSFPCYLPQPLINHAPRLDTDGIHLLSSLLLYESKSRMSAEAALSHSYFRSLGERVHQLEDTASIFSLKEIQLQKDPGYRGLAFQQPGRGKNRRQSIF
Method in brief: as §1

PIK3C2B = biological target: T5, PIK3C2B (Homo sapiens, UniProt O00750); experiment: KINOMEscan; type: binding; details: 1 uM
T5 construct: purchased Ambit KINOMEscan (DiscoverX)
T5 sequence (O00750 whole entry): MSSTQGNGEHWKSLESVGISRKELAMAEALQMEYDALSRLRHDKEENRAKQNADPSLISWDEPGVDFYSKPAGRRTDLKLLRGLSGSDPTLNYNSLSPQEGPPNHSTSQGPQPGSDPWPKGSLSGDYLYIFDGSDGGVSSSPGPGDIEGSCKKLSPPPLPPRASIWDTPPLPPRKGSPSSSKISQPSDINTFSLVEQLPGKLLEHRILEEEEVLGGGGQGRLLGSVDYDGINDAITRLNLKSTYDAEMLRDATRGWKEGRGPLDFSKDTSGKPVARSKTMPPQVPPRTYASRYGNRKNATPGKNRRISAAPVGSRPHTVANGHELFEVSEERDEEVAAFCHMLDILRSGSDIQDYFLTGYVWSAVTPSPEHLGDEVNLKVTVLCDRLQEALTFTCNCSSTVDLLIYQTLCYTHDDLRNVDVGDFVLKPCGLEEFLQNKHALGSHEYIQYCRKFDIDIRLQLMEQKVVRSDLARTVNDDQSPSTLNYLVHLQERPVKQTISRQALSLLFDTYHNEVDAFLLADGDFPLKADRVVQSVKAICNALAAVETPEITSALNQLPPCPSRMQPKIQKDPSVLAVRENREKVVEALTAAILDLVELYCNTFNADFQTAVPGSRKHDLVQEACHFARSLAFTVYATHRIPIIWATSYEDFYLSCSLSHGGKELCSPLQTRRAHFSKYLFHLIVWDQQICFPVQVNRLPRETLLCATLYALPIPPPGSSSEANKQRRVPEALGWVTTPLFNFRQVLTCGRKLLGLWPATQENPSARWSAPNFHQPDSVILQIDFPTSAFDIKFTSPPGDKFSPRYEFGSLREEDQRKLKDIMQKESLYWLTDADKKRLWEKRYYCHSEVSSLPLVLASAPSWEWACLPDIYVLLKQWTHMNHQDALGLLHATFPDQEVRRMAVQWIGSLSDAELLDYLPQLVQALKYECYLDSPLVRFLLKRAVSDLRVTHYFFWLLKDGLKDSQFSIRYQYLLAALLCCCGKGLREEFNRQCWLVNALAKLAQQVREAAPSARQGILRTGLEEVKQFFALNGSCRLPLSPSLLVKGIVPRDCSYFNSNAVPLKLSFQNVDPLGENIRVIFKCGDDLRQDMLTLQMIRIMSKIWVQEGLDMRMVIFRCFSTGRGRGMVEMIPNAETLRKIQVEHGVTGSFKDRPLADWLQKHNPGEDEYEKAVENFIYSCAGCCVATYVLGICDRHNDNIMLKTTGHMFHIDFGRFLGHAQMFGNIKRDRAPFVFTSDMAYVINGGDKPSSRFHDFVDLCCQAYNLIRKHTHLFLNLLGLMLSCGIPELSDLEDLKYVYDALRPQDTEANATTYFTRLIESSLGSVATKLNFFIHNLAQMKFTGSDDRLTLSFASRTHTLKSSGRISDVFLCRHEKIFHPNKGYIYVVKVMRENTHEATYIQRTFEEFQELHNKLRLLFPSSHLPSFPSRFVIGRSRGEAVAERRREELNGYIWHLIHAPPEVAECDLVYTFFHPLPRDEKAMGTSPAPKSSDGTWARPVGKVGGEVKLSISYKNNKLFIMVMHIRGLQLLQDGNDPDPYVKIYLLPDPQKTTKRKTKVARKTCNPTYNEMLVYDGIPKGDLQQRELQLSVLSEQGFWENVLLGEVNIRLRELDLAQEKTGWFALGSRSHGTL
Method in brief: as §1

PIK3CA = biological target: T6, PIK3CA (Homo sapiens, UniProt P42336); experiment: KINOMEscan; type: binding; details: 1 uM
T6 construct: purchased Ambit KINOMEscan (DiscoverX)
T6 sequence (P42336 whole entry): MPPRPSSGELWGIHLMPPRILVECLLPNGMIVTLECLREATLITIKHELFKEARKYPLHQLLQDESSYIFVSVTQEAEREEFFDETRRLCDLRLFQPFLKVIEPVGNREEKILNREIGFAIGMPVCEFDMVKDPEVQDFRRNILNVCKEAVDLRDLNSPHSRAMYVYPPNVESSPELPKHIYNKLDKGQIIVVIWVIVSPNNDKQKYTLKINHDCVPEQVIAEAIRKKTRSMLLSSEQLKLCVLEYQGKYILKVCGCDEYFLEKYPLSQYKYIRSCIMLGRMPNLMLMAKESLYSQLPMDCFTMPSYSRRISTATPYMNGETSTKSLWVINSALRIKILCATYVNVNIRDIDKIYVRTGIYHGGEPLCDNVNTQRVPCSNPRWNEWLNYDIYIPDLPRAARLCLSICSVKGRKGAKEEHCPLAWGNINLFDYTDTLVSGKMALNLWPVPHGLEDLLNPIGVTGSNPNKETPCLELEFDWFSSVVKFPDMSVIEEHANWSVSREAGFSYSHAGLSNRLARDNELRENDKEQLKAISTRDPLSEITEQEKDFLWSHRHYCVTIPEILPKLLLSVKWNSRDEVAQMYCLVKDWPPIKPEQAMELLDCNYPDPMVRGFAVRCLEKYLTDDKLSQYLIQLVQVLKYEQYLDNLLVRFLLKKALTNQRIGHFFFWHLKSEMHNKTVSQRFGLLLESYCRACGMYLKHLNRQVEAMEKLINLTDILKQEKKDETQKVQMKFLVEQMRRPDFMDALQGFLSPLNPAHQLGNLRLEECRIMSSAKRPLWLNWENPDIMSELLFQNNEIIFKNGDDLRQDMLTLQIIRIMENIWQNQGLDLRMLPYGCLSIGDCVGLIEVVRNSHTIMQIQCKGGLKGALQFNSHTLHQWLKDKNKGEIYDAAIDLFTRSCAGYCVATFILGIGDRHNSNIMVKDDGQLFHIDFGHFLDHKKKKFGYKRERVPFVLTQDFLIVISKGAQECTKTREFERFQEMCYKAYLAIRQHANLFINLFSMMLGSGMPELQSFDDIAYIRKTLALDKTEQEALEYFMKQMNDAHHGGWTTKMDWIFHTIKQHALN
Method in brief: as §1

RIOK3 = biological target: T7, RIOK3 (Homo sapiens, UniProt O14730); experiment: KINOMEscan; type: binding; details: RIOK3, 1 uM
T7 construct: purchased Ambit KINOMEscan (DiscoverX)
Method in brief: as §1

PRP4 = biological target: T8, PRP4 (Homo sapiens, UniProt Q13523); experiment: KINOMEscan; type: binding; details: PRP4, 1 uM
T8 construct: purchased Ambit KINOMEscan (DiscoverX)

HIPK1 = biological target: T9, HIPK1 (Homo sapiens, UniProt Q86Z02); experiment: SelectScreen in vitro kinase IC50; type: biochemical
T9 construct: purchased Ambit KINOMEscan (DiscoverX)
Experimental: (§2) First, we used Ambit's KINOMEscan™ technology to identify those kinases that are inhibited for substrate binding by the compounds, all assayed at 1 μM. Second, we used Invitrogen's SelectScreen® Biochemical Kinase Profiling Service to determine the in vitro IC50s for the compounds against specific kinases.

NEK1 = biological target: T10, NEK1 (Homo sapiens, UniProt Q96PY6); experiment: SelectScreen in vitro kinase IC50; type: biochemical
T10 construct: purchased Ambit KINOMEscan (DiscoverX)
T10 sequence (Q96PY6 1-1258): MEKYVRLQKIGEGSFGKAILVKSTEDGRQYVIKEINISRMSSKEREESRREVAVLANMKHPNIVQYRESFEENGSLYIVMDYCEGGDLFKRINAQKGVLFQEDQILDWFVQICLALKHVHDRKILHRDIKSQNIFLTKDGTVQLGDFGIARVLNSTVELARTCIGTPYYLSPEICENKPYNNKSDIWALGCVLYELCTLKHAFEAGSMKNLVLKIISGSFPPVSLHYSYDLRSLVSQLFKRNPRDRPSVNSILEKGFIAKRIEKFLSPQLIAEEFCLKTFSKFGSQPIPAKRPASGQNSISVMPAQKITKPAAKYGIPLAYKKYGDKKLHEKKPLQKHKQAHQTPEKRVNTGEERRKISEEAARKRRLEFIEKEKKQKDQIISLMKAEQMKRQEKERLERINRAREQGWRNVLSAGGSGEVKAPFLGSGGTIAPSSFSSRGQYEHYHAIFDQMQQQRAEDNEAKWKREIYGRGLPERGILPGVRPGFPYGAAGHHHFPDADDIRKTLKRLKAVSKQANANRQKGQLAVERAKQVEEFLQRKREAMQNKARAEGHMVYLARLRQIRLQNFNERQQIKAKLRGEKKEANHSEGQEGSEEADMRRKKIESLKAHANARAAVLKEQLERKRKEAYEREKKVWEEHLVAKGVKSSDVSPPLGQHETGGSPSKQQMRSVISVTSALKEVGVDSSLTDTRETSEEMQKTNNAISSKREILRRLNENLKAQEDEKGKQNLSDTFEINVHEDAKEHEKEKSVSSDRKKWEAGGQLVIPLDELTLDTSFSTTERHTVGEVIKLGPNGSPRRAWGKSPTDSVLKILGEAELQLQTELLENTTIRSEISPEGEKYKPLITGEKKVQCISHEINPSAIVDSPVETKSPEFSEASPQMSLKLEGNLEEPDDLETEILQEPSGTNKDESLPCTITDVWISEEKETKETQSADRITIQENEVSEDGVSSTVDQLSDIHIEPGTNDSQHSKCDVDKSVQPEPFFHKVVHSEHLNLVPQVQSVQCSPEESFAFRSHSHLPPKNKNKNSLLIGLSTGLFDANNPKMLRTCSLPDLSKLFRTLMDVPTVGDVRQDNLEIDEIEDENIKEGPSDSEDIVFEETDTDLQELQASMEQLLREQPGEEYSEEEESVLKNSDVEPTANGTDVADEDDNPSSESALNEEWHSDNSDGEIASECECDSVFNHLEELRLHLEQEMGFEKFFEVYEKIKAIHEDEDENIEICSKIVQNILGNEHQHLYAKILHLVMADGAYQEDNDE
Experimental: as §2

HCT-116 (K-RAS^G13D/+) = experiment: Cell viability (Syto60); type: cell-based
Experimental: (§3) All colon cancer cell lines were maintained in DMEM supplemented with penicillin (100 units/mL), streptomycin (100 μg/mL), and 10% fetal bovine serum (FBS). The rectal cancer cell line (Car1) was maintained in DMEM/F12 supplemented with penicillin (100 units/mL)/streptomycin (50 μg/mL), and 5% FBS. […] The target sequences for knockdowns can be found in Table S2. In drug treatment experiments, cells were plated for 24 hours prior to exposure to drug. AZ-628 was obtained from AstraZeneca. CI-1040 was obtained from Pfizer. R406 was synthesized in the Gray laboratory. BAY61-3606 and IKK VII were purchased from EMD Biosciences. BAY derivatives were synthesized for this study.
(§4) Cell cycle analysis was performed via FACS-based propidium iodide quantification, using standard methods. To measure cell viability, cells were grown in 96-well plates in the presence or absence of drug for 72 hours, fixed with 4% paraformaldehyde, and then stained with Syto60 (Invitrogen). Plates were imaged and quantified using the LiCor Odyssey system (LiCor).

[1] = tested on: colorectal cancer cells expressing mutant B-RAF (V600E) (HT-29, RKO); experiment: Cell viability (Syto60); type: cell-based; details: HT-29 and RKO, 72 hours
Experimental: as §3, §4

panel of 402 kinases = experiment: KINOMEscan panel; type: binding; details: 1 μM
Experimental: as §2

CDC2L5 = CDC2L5 (Homo sapiens, UniProt Q14004); details: CDC2L5, 1 uM
Experimental: as §2

PKNB(M.tuberculosis) = PKNB(M.tuberculosis) (Mycobacterium tuberculosis, UniProt P9WI81); details: 1 uM
Experimental: as §2

[2] = tested on: panel of colorectal cancer cell lines; experiment: Cell viability (Syto60) in a panel of colorectal cancer cell lines; type: cell-based; details: 72 hours, 3 cell lines expressing wild-type K-RAS
Experimental: as §4
Relative cell viability was normalized to an untreated control for each cell line. Error bars represent SEM for 3 independent experiments. […] (PDF) Click here for additional data file.

T1 sequence (Q9C098 whole entry): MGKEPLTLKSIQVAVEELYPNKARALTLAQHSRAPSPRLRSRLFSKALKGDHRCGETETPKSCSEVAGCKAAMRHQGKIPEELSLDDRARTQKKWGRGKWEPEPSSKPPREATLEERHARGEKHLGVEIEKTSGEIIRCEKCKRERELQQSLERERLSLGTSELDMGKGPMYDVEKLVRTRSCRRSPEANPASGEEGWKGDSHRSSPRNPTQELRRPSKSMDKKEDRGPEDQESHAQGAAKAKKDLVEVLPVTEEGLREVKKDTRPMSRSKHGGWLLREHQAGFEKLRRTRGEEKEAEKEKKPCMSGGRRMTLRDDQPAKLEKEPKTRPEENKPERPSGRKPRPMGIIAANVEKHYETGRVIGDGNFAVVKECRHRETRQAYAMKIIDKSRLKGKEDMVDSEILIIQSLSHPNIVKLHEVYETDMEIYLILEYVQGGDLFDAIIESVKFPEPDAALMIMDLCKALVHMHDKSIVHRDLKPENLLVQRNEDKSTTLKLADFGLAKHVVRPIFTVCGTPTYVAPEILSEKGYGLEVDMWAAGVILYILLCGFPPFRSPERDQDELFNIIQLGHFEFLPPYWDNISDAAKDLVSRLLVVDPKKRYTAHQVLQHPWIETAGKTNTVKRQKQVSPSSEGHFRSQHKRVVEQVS

| Compound | % binding compared to no inhibitor control (DCAMKL3) | % binding compared to no inhibitor control (FGFR4) | % binding compared to no inhibitor control (LZK) | % binding compared to no inhibitor control (PCTK3) | % binding compared to no inhibitor control (PIK3C2B) | % binding compared to no inhibitor control (PIK3CA) | % binding compared to no inhibitor control (RIOK3) | % binding compared to no inhibitor control (PRP4) | IC50 (HIPK1) | IC50 (NEK1) | sensitivity of cells expressing mutant K-RAS (cell viability) (HCT-116 (K-RAS^G13D/+); 72 hours, HCT-116 compared to HKe-3, normalized to DMSO) | cooperation with AZ-628 (cell viability) (HCT-116 (K-RAS^G13D/+); HCT-116, 72 hours, 1 µM AZ-628) | cell viability, combination of BAY61-3606 and CI-1040 [1] | sensitivity of cells expressing mutant B-RAF (cell viability) ([1]; single agent) | number of kinases with binding inhibited by greater than 90% (panel of 402 kinases; panel of 402 kinases) | % binding compared to no inhibitor control (CDC2L5) | % binding compared to no inhibitor control (PKNB(M.tuberculosis)) | cell lines expressing wild-type K-RAS that responded [2] | ability to competitively inhibit active site (ATP) binding across the kinase panel (panel of 402 kinases) |
| --- | --- | --- | --- | --- | --- | --- | --- | --- | --- | --- | --- | --- | --- | --- | --- | --- | --- | --- | --- |
| COc1ccc(-c2cc3nccn3c(Nc3ncccc3C(N)=O)n2)cc1OC.Cl.Cl [BAY61-3606, 2-[7-(3,4-dimethoxyphenyl)-imidazo [1,2-c]pyrimidin-5-ylamino] nicotinamide dihydrochloride, reference compound] | 100% | 100% | 64% | 92% | 60% | 92% | 98% | 77% | 4240 nM | 159 nM | relatively sensitive | did not cooperate | cooperated to produce an enhanced response | sensitive | 15 kinases |  |  |  |  |
| COc1ccccc1Nc1nc(-c2ccc(OC)c(OC)c2)cc2nccn12 [BAY derivative 6] | 100% | 100% | 100% | 100% | 100% | 100% | 80% | 100% |  |  |  |  |  |  |  | 88% | 99% | 0/3 | failed to effectively inhibit ATP binding by the majority of kinases |
